Read-outs that look alike come from different tables or passages of the source. No end group written: not given here. Some results are limits rather than exact numbers.

Some targets named below: HLA-DR DRB1*0401 (DR4) (Homo sapiens, UniProt P01903+P01911, A100K/A169T/F76Y/I96L/K127E/L162R/M171V/N62H/P40V/Q125Y/R42H/S133A/S149N/S66Y/V115G/V209L/W38E); HLA-DR DRB1*0701 (DR7) (Homo sapiens, UniProt P01903+P01911, A100R/A102G/A103Q/D57E/D86V/E43K/F76Y/K127E/L162R/M171V/P40G/Q125H/Q99D/R33Q/R42Y/R54Q/S133A/S66F/T210M/V115G/Y107V/Y59L/Y89S); HLA-DR DRB1*0101 (DR1) (Homo sapiens, UniProt P01903+P01911, A100R/D57E/F55L/F60I/F76Y/I96L/L162R/M171V/P40L/Q125E/R42F/V115G/Y59C); HLA-DR DRB4*0101 (DR53) (Homo sapiens, UniProt P01903+P13762, G164S); HLA-DR DRB5*0101 (DR51) (Homo sapiens, UniProt P01903+Q30154).

What all share (experiment): biochemical
Assay type in all cases: binding

As for PKYFKQRLLKFAT, the IC50 at HLA-DR DRB1*0401 (DR4) (read-out: DRB1 *0401) came to 400 nM.

For KSLLSTNLPYGRTNL, the figures for the IC50 against HLA-DR DRB1*0701 (DR7) (DRB1 *0701) and at HLA-DR DRB1*0401 (DR4) (DRB1 *0401) were 50000 nM and 690 nM, respectively.

In turn, FSYFPSI [FSYFPSI] displayed an IC50 against HLA-DR DRB1*0101 (DR1) (DRB1 *0101) not below 50000 nM.

Take QKQVQMMIMTKFMGV: the IC50 at HLA-DR DRB1*0701 (DR7) (read-out: DRB1 *0701) was 3620 nM; at HLA-DR DRB1*0101 (DR1) (read-out: DRB1 *0101), 121 nM.

As for EERVKKPLSEITIRC, the IC50 is 9450 nM at HLA-DR DRB1*0701 (DR7) (DRB1 *0701), 2990 nM against HLA-DR DRB4*0101 (DR53) (DRB4 *0101), 7910 nM on HLA-DR DRB5*0101 (DR51) (DRB5 *0101) and 11900 nM at HLA-DR DRB1*0401 (DR4) (DRB1 *0401).

Consider `C[C@H](N)C(=O)N[C@@H](C)C(=O)N[C@@H](C)C(=O)N[C@@H](C)C(=O)N[C@@H](C)C(=O)N[C@@H](C)C(=O)N[C@@H](C)C(=O)N[C@@H](C)C(=O)N[C@@H](C)C(=O)N[C@@H](C)C(=O)N[C@@H](C)C(=O)N[C@@H](C)C(=O)N[C@@H](CC(N)=O)C(=O)O`, for which the results for the IC50 on HLA-DR DRB1*0101 (DR1) (DRB1 *0101) and against HLA-DR DRB1*0401 (DR4) (DRB1 *0401) were not below 50000 nM and 500 nM, respectively.

With TWQLNGEELIQDM, at HLA-DR DRB1*0101 (DR1) (read-out: DRB1 *0101), the IC50 is not below 50000 nM.

GRLEYCLKDRRNFDI yielded an IC50 on HLA-DR DRB5*0101 (DR51) (DRB5 *0101) of 64700 nM.

In the case of YARFLALTTLRARA, the IC50 at HLA-DR DRB1*0101 (DR1) (read-out: DRB1 *0101) amounted to 0.98 nM; on HLA-DR DRB1*0401 (DR4) (read-out: DRB1 *0401), 0.28 nM.

The compound AFAAAKTAA came in with an IC50 against HLA-DR DRB1*0401 (DR4) (DRB1 *0401) of 571 nM.

For PKPFRPQQPYPQ, the IC50 against HLA-DR DRB4*0101 (DR53) (DRB4 *0101) was found to be 3.4 nM.

The compound RNGYRALMDKSLHVGTQCALTRR came in with an IC50 at HLA-DR DRB1*0401 (DR4) (DRB1 *0401) of 512 nM.

As to FFKNIVTFFKNIVT, the IC50 on HLA-DR DRB1*0701 (DR7) (DRB1 *0701) was more than 12500 nM; against HLA-DR DRB1*0101 (DR1) (DRB1 *0101), not below 50000 nM; on HLA-DR DRB1*0401 (DR4) (DRB1 *0401), more than 667 nM.

On to AAAKAAAAAAFAA, for which, on HLA-DR DRB1*0401 (DR4) (DRB1 *0401), the IC50 worked out at 235 nM.

Ac-ASQKRPSQRHGSKYLATAST returned an IC50 against HLA-DR DRB5*0101 (DR51) (DRB5 *0101) of 4560 nM.

As for AAAKAAAAAAAFA, the IC50 on HLA-DR DRB1*0101 (DR1) (DRB1 *0101) was not below 50000 nM.

AADDDDDDDDDDA returned an IC50 at HLA-DR DRB1*0101 (DR1) (DRB1 *0101) not below 50000 nM.

With PEFLEQRRAAVDTYC, the IC50 was determined as 5000 nM on HLA-DR DRB1*0101 (DR1) (DRB1 *0101) and 80000 nM on HLA-DR DRB1*0401 (DR4) (DRB1 *0401).

At HLA-DR DRB4*0101 (DR53) (DRB4 *0101), IRNLALQTLP showed an IC50 of 3 nM.

As to (46)AAKTAAAFA, on HLA-DR DRB1*0101 (DR1) (read-out: DRB1 *0101), the IC50 stood at 5000 nM.

As for AFLRQAAAAAFAAY, the IC50 on HLA-DR DRB1*0101 (DR1) (DRB1 *0101) was determined as 2500 nM; against HLA-DR DRB1*0401 (DR4) (DRB1 *0401), 1000 nM.

Consider VGIRTPVLTSLFNKV, for which the IC50 on HLA-DR DRB4*0101 (DR53) (read-out: DRB4 *0101) was determined as 97 nM; on HLA-DR DRB5*0101 (DR51) (read-out: DRB5 *0101) it was 80 nM.

The compound QFLGQQQPFPP displayed an IC50 against HLA-DR DRB4*0101 (DR53) (DRB4 *0101) of 2.3 nM.

For the compound DPNANPNVDPNAN, the IC50 at HLA-DR DRB1*0701 (DR7) (read-out: DRB1 *0701) is more than 15600 nM; at HLA-DR DRB1*0401 (DR4) (read-out: DRB1 *0401), 738 nM.

For PQPFRPQQPYPK, at HLA-DR DRB4*0101 (DR53) (DRB4 *0101), the IC50 came to 22 nM.

In turn, PKYGKQIDLKGAT showed an IC50 against HLA-DR DRB1*0101 (DR1) (DRB1 *0101) not below 50000 nM.

Take QKQLLTNHLINTPKI: on HLA-DR DRB4*0101 (DR53) (read-out: DRB4 *0101), the IC50 stood at 904 nM.

With QKWAAVVVPS, the IC50 on HLA-DR DRB1*0101 (DR1) (DRB1 *0101) is not below 50000 nM; against HLA-DR DRB1*0401 (DR4) (DRB1 *0401), 1000 nM.

Take QFLGQQQPF: on HLA-DR DRB4*0101 (DR53) (DRB4 *0101), the IC50 came out at 5.3 nM.

Turning to `CC[C@H](C)[C@H](NC(=O)[C@@H](NC(=O)[C@@H]1CCCN1C(=O)[C@H](Cc1ccccc1)NC(=O)[C@H](Cc1ccccc1)NC(=O)[C@H](Cc1ccc(O)cc1)NC(=O)[C@H](CCC(N)=O)NC(=O)[C@H](Cc1c[nH]c2ccccc12)NC(=O)[C@H](CC(N)=O)NC(=O)CNC(=O)[C@@H](N)C(C)C)C(C)C)C(=O)N[C@@H](Cc1ccccc1)C(=O)N[C@@H](CO)C(=O)N[C@@H](CCCCN)C(=O)N[C@@H](C)C(=O)O`, the values for the IC50 at HLA-DR DRB1*0701 (DR7) (DRB1 *0701), against HLA-DR DRB1*0101 (DR1) (DRB1 *0101) and on HLA-DR DRB1*0401 (DR4) (DRB1 *0401) were 100 nM, 37 nM and 4.1 nM, respectively.

For the compound AAAKAAAAAAAAF, the IC50 on HLA-DR DRB1*0101 (DR1) (DRB1 *0101) is more than 1670 nM; against HLA-DR DRB1*0401 (DR4) (DRB1 *0401), more than 348 nM.

Consider EGDAFELTVSC, for which the IC50 on HLA-DR DRB1*0401 (DR4) (read-out: DRB1 *0401) was found to be 572 nM.

On HLA-DR DRB4*0101 (DR53) (DRB4 *0101), PQPFRPQQPYP returned an IC50 of 14 nM.

As to AAAAASAAAAAAA, the IC50 against HLA-DR DRB1*0101 (DR1) (DRB1 *0101) is not below 50000 nM; at HLA-DR DRB1*0401 (DR4) (DRB1 *0401), 235 nM.

Regarding IRNLALQTLPAMCNVY, at HLA-DR DRB4*0101 (DR53) (DRB4 *0101), the IC50 came out at 1.9 nM.

In turn, PAYEKLSAEQSPPPY displayed an IC50 at HLA-DR DRB1*0401 (DR4) (DRB1 *0401) of 479 nM.

For (43)AAIGFFFFKKGIA, the IC50 on HLA-DR DRB1*0401 (DR4) (read-out: DRB1 *0401) is 258 nM.

In the case of QNILFSNAPLGPQFP, the IC50 at HLA-DR DRB1*0401 (DR4) (DRB1 *0401) was found to be 195 nM.

With IRNLALQTLPAM, the IC50 against HLA-DR DRB4*0101 (DR53) (DRB4 *0101) was determined as 2 nM.

Take AAYAAAATAKAAA: the values for the IC50 on HLA-DR DRB1*0101 (DR1) (read-out: DRB1 *0101) and on HLA-DR DRB1*0401 (DR4) (read-out: DRB1 *0401) were 3.9 nM and 0.54 nM, respectively.

The compound AAKIFIGFFIDGA registered an IC50 at HLA-DR DRB1*0401 (DR4) (DRB1 *0401) of 200 nM.

In the case of PQPFRPQQPYPQ, at HLA-DR DRB4*0101 (DR53) (DRB4 *0101), the IC50 was determined as 15 nM.

Values taken from patent US20060079453A1, “Hla binding peptides and their uses” (priority 2002, published 2006).
